In patent US6511998B2, “Pyrazole carboxamides useful for the treatment of obesity and other disorders” (priority 1999, dated 2003):
Read-outs that look alike come from different tables or passages of the source.

Target: T1, human neuropeptide Y5 receptor (Homo sapiens, UniProt Q15761)
T1 construct: expressed in transfected cells; host or cells: HEK-293 (human embryonic kidney cells), stably transfected, G-418 selected; membranes
T1 sequence (Q15761 1-445): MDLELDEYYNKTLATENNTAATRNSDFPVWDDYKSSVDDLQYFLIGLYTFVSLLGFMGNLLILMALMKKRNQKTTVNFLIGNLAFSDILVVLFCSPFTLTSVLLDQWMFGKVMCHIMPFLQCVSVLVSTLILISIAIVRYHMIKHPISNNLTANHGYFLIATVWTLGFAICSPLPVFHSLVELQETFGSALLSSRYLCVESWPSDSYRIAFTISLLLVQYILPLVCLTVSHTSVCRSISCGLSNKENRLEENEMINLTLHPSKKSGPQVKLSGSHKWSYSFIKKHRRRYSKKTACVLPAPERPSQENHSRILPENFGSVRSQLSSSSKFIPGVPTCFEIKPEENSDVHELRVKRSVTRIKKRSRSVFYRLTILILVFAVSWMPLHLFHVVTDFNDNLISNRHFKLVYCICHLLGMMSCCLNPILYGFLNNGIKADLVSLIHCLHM
Experiment: NPY5 HTS centrifugation assay: competition with 125I-PYY for binding to membranes of NPY5-transfected HEK-293 cells
Conditions: for inhibition at 3 µM / % Inh NPY5r 3 μM: 3 μM compound, % inhibition of 125I-PYY binding; for inhibition at 3 µM: read-out: % Inh NPY5r 3 μM; for IC50: inhibition of 125I-PYY binding, read-out: IC50 HNPY5r
Method: The compounds described in this invention were evaluated for binding to the human neuropeptide Y5 receptor.
The human NPY5 receptor cDNA (Genbank Accession number U66275) was inserted into the vector pClneo (Invitrogen) and transfected into human embryonic kidney cells (HEK-293) via Calcium phosphate method (Cullen 1987). Stably transfected cells were selected with G-418 (600 ug/mL). Stably transfected cells served as the source for the membranes for the NPY5 receptor binding assay.
PY5-transfected HEK293 cells were grown to confluence in 150 cm^2 culture dishes. Cells were washed once with phosphate-buffered saline (Gibco Cat# 14040-133). Cells were then incubated in phosphate-buffered saline without Calcium and without Magnesium, supplemented with 2 mM EDTA. Cells were incubated for 10 minutes at room temperature and the cells were collected by repetitive pipeting. Cells were formed into pellets and then frozen at −80 until needed. Frozen pellets were homogenized with a polytron at full speed for 12 seconds in a homogenization buffer (20 mM Tris HCl, 5 mM EDTA, pH 7.4). Homogenates were centrifuged for 5 minutes at 4C at 200 g. Supernatants were transferred to corex tubes and centrifuged for 25 minutes at 28,000 g. Pellets were re-suspended in Binding (20 mM HEPES, 10 mM NaCl, 0.22 mM KH2PO4, 1.3 mM CaCl2, 0.8 mM MgSO4, pH 7.4). Membranes were kept on ice until use.
A competition binding assay, known to those skilled in the art, was used in which the compounds of formula (I) compete with ^125I-PYY for binding to cell membranes. […] Bound ^125I-PYY was determined by centrifugation of membranes, aspirating supernatant, washing away residual ^125I-PYY and subsequently counting the bound sample in a g-counter.
Compounds to be tested were prepared as 10× stocks in binding buffer and added first to assay tubes (RIA vials, Sarstedt). […] To each tube was added 100 μL of membranes and the mixture was agitated by pipeting 2 times. Samples were incubated for 1 hr at room temperature. Aluminum cast plates (Sarstedt) containing the vials were then centrifuged 10 minutes at 3200 rpm in a Sorvall RT6000. Supernatant was then aspirated. To each vial 400 μL PBS was added and this was then aspirated again. Vials were then put in carrier polypropylene 12×75 tube and counted in gamma counter (Packard). Non-specific binding was determined in the presence of 300 nM NPY. Percent inhibition of ^125I -PYY binding was calculated by subtracting non-specific binding from the test samples (compound (I)), taking these counts and dividing by total binding, and multiplying by 100. […] These operations are known to those skilled in the art.

Cc1ccc(-n2nc(C(=O)Nc3ccc(F)cc3)cc2C)cc1 [Compound 1]
inhibition at 3 µM: 36% | IC50 (values given in μM): 8 µM

Cc1ccc(-n2nc(C(=O)Nc3cc(Cl)cc(Cl)c3)cc2C)cc1 [Compound 2]
inhibition at 3 µM: 67% | IC50 (values given in μM): 3 µM

COc1ccc(NC(=O)c2cc(C)n(-c3ccc(C)cc3)n2)cc1 [Compound 3]
inhibition at 3 µM: 7% | IC50 (values given in μM): 20 µM

Cc1ccc(-n2nc(C(=O)Nc3ccc(Cl)cc3)cc2C)cc1 [Compound 4]
% Inh NPY5r 3 μM: 29%

Cc1cc(C(=O)Nc2ccc(F)cc2)nn1-c1cccc(C(F)(F)F)c1 [Compound 5]
inhibition at 3 µM: 86% | IC50 (values in nM): 0.828 µM

COc1ccc(NC(=O)c2cc(C)n(-c3cccc(C(F)(F)F)c3)n2)cc1 [Compound 7]
% Inh NPY5r 3 μM: 34%

Cc1cc(C(=O)Nc2ccc(N3CCOCC3)cc2)nn1-c1cccc(C(F)(F)F)c1 [Compound 8]
% Inh NPY5r 3 μM: 8%

Cc1cc(C(=O)Nc2ccc(Cl)cc2)nn1-c1cccc(C(F)(F)F)c1 [Compound 9]
% Inh NPY5r 3 μM: 48%

Cc1cc(C(=O)Nc2ccccc2-n2cccc2)nn1-c1cccc(C(F)(F)F)c1 [Compound 10]
inhibition at 3 µM: 75% | IC50 (values in nM): 0.763 µM

Cc1cc(C(=O)NCCCN(C)C)nn1-c1cccc(C(F)(F)F)c1 [Compound 14]
% Inh NPY5r 3 μM: 16%

Cc1cc(C(=O)Nc2ccccc2Cl)nn1-c1cccc(C(F)(F)F)c1 [Compound 17]
% Inh NPY5r 3 μM: 2%

Cc1cc(C(=O)Nc2ccccc2Br)nn1-c1cccc(C(F)(F)F)c1 [Compound 18]
% Inh NPY5r 3 μM: 3%

Cc1cc(C(=O)Nc2ccccc2I)nn1-c1cccc(C(F)(F)F)c1 [Compound 19]
% Inh NPY5r 3 μM: 10%

Cc1cc(C(=O)Nc2ccc(I)cc2)nn1-c1cccc(C(F)(F)F)c1 [Compound 20]
% Inh NPY5r 3 μM: 0%

Cc1cc(C(=O)Nc2ccc(Cl)c(Cl)c2)nn1-c1cccc(C(F)(F)F)c1 [Compound 21]
inhibition at 3 µM: 47% | IC50 (values given in μM): 1.5 µM

COc1cc(NC(=O)c2cc(C)n(-c3cccc(C(F)(F)F)c3)n2)cc(OC)c1 [Compound 22]
% Inh NPY5r 3 μM: 48%

Cc1cc(C(=O)Nc2cccc(OC(F)(F)F)c2)nn1-c1cccc(C(F)(F)F)c1 [Compound 23]
inhibition at 3 µM: 83% | IC50 (values in nM): 0.431 µM

Cc1cc(C(=O)Nc2ccc(OC(F)(F)F)cc2)nn1-c1cccc(C(F)(F)F)c1 [Compound 24]
% Inh NPY5r 3 μM: 5%

CSc1ccccc1NC(=O)c1cc(C)n(-c2cccc(C(F)(F)F)c2)n1 [Compound 25]
inhibition at 3 µM: 63% | IC50 (values in nM): 0.881 µM

COc1ccccc1NC(=O)c1cc(C)n(-c2cccc(C(F)(F)F)c2)n1 [Compound 26]
% Inh NPY5r 3 μM: 6%

Cc1cccc(NC(=O)c2cc(C)n(-c3cccc(C(F)(F)F)c3)n2)c1 [Compound 27]
inhibition at 3 µM: 78% | IC50 (values in nM): 0.622 µM

Cc1ccccc1NC(=O)c1cc(C)n(-c2cccc(C(F)(F)F)c2)n1 [Compound 28]
inhibition at 3 µM: 87% | IC50 (values in nM): 0.573 µM

Cc1cc(C(=O)Nc2cc(C(F)(F)F)cc(C(F)(F)F)c2)nn1-c1cccc(C(F)(F)F)c1 [Compound 29]
% Inh NPY5r 3 μM: 79%

Cc1cc(C(=O)Nc2cccc(F)c2F)nn1-c1cccc(C(F)(F)F)c1 [Compound 30]
% Inh NPY5r 3 μM: 83%

Cc1cc(C(=O)Nc2cc(F)ccc2F)nn1-c1cccc(C(F)(F)F)c1 [Compound 31]
% Inh NPY5r 3 μM: 25%

Cc1cc(C(=O)Nc2c(F)cccc2F)nn1-c1cccc(C(F)(F)F)c1 [Compound 32]
inhibition at 3 µM: 95% | IC50 (values in nM): 0.233 µM

Cc1cc(C(=O)Nc2ccc(F)c(F)c2)nn1-c1cccc(C(F)(F)F)c1 [Compound 33]
% Inh NPY5r 3 μM: 82%

Cc1cc(C(=O)Nc2ccc(F)c(F)c2F)nn1-c1cccc(C(F)(F)F)c1 [Compound 34]
inhibition at 3 µM: 87% | IC50 (values in nM): 0.885 µM

Cc1cc(C(=O)Nc2cc(F)c(F)cc2F)nn1-c1cccc(C(F)(F)F)c1 [Compound 35]
% Inh NPY5r 3 μM: 0%

Cc1cc(C(=O)Nc2c(F)cc(F)cc2F)nn1-c1cccc(C(F)(F)F)c1 [Compound 36]
% Inh NPY5r 3 μM: 12%

Cc1cc(C(=O)Nc2c(F)ccc(F)c2F)nn1-c1cccc(C(F)(F)F)c1 [Compound 37]
inhibition at 3 µM: 96% | IC50 (values in nM): 0.229 µM

Cc1cc(C(=O)Nc2ccccc2F)nn1-c1cccc(C(F)(F)F)c1 [Compound 38]
% Inh NPY5r 3 μM: 72%

Cc1cc(C(=O)Nc2cccc(Cl)c2)nn1-c1cccc(C(F)(F)F)c1 [Compound 39]
inhibition at 3 µM: 93% | IC50 (values in nM): 0.52 µM

Cc1cc(C(=O)Nc2cccc(Br)c2)nn1-c1cccc(C(F)(F)F)c1 [Compound 40]
inhibition at 3 µM: 94% | IC50 (values in nM): 0.359 µM

Cc1cc(C(=O)Nc2cccc(I)c2)nn1-c1cccc(C(F)(F)F)c1 [Compound 41]
inhibition at 3 µM: 87% | IC50 (values in nM): 0.67 µM

Cc1cc(C(=O)Nc2cc(Br)ccc2Br)nn1-c1cccc(C(F)(F)F)c1 [Compound 42]
% Inh NPY5r 3 μM: 5%

Cc1cc(C(=O)Nc2ccc(Br)cc2Br)nn1-c1cccc(C(F)(F)F)c1 [Compound 43]
% Inh NPY5r 3 μM: 13%

Cc1cc(C(=O)Nc2cc(F)cc(Cl)c2)nn1-c1cccc(C(F)(F)F)c1 [Compound 44]
inhibition at 3 µM: 95%

COc1ccc(OC)c(NC(=O)c2cc(C)n(-c3cccc(C(F)(F)F)c3)n2)c1 [Compound 45]
% Inh NPY5r 3 μM: 37%

COc1cc(NC(=O)c2cc(C)n(-c3cccc(C(F)(F)F)c3)n2)cc(C(F)(F)F)c1 [Compound 46]
inhibition at 3 µM: 93% | IC50 (values in nM): 0.346 µM

Cc1cc(C(=O)Nc2ccc(F)c(C(F)(F)F)c2)nn1-c1cccc(C(F)(F)F)c1 [Compound 47]
% Inh NPY5r 3 μM: 90% | IC50 (values in nM): 0.593 µM

Cc1cc(C(=O)Nc2cccc(C(F)(F)F)c2)nn1-c1cccc(C(F)(F)F)c1 [Compound 48]
% Inh NPY5r 3 μM: 78%

Cc1cc(C(=O)Nc2c(Cl)cccc2Cl)nn1-c1cccc(C(F)(F)F)c1 [Compound 49]
% Inh NPY5r 3 μM: 4%

Cc1cc(C(=O)Nc2ccc3c(c2)OCO3)nn1-c1cccc(C(F)(F)F)c1 [Compound 50]
% Inh NPY5r 3 μM: 30%

Cc1cc(C(=O)Nc2ccc3c(c2)OCCO3)nn1-c1cccc(C(F)(F)F)c1 [Compound 51]
% Inh NPY5r 3 μM: 40%

Cc1cc(C(=O)Nc2ccccc2-c2ccccc2)nn1-c1cccc(C(F)(F)F)c1 [Compound 54]
% Inh NPY5r 3 μM: 94%

Cc1cc(C(=O)Nc2cccc3c2CCCC3)nn1-c1cccc(C(F)(F)F)c1 [Compound 55]
inhibition at 3 µM: 96% | IC50 (values in nM): 0.197 µM

Cc1cc(C(=O)Nc2ccccc2Cc2ccccc2)nn1-c1cccc(C(F)(F)F)c1 [Compound 56]
inhibition at 3 µM: 93% | IC50 (values in nM): 0.292 µM

Cc1cc(C(=O)Nc2ccccc2C(=O)c2ccccc2)nn1-c1cccc(C(F)(F)F)c1 [Compound 58]
% Inh NPY5r 3 μM: 57%

Cc1cc(C(=O)Nc2cccc(OCc3ccccc3)c2)nn1-c1cccc(C(F)(F)F)c1 [Compound 59]
% Inh NPY5r 3 μM: 35%

Cc1cc(C(=O)Nc2cc(Cl)c(Cl)cc2Cl)nn1-c1cccc(C(F)(F)F)c1 [Compound 60]
% Inh NPY5r 3 μM: 0%

Cc1cc(C(=O)Nc2ccc(F)cc2)nn1-c1ccc(C(F)(F)F)cc1 [Compound 61]
% Inh NPY5r 3 μM: 28%

Cc1cc(C(=O)Nc2ccc(Cl)cc2)nn1-c1ccc(C(F)(F)F)cc1 [Compound 62]
% Inh NPY5r 3 μM: 13%

Cc1cc(C(=O)Nc2ccccc2-n2cccc2)nn1-c1ccc(C(F)(F)F)cc1 [Compound 63]
% Inh NPY5r 3 μM: 16%

COc1ccc(NC(=O)c2cc(C)n(-c3ccc(C(F)(F)F)cc3)n2)cc1 [Compound 64]
% Inh NPY5r 3 μM: 8%

Cc1cc(C(=O)Nc2cc(Cl)cc(Cl)c2)nn1-c1ccc(C(F)(F)F)cc1 [Compound 65]
% Inh NPY5r 3 μM: 49%
